Test results taken from patent US20260078341A1, “TREATMENT OF CANCER USING CHIMERIC ANTIGEN RECEPTOR” (Novartis AG, priority 2014, published 2026).
Where “and” joins values, the source holds several entries; their conditions need not be identical. Identical values can stand only once. Like-named read-outs stand apart in the source and are kept apart here.

Legend:
[1] = Questionnaires on energy and exercise one year after dosing; type: in vivo, human; details: 0.5 mg daily dosing cohort
[2] = system: PD-1 positive CD4 and CD8 T cells; type: in vivo, human
[3] = Exercise and energy in elderly subjects; type: in vivo, human
[4] = system: influenza vaccine strains and heterologous influenza strains; experiment: Influenza geometric mean titers 4 weeks after vaccination in RAD001 cohorts; type: in vivo, human; details: relative to placebo
Source text: FIGS. 41A and 41B. […] In FIG. 41A, the increase above baseline in influenza geometric mean titers to each of the 3 influenza vaccine strains (H1N1 A/California/07/2009, H3N2 A/Victoria/210/2009, B/Brisbane/60/2008) relative to the increase in the placebo cohort 4 weeks after vaccination is shown for each of the RAD001 dosing cohorts in the intention to treat population. […] FIG. 41B is a graph of the same data as in FIG. 41A for the subset of subjects with baseline influenza titers <=1:40.
The increase above baseline in influenza geometric mean titers to 2 heterologous influenza strains (A/H1N1 strain A/New Jersey/8/76 and A/H3N2 strain A/Victoria/361/11) not contained in the influenza vaccine relative to the increase in the placebo cohort 4 weeks after vaccination is shown for each of the RAD001 dosing cohorts in the intention to treat population. * indicates increase in titer relative to placebo exceeds 1 with a posterior probability of at least 80%.

[5] = for Treatment-related AE: Blood cholesterol increased / Treatment-related AE: Conjunctivitis / Treatment-related AE: Diarrhea / Treatment-related AE: Dry mouth / Treatment-related AE: Dyspepsia / Treatment-related AE: Erythema / Treatment-related AE: Fatigue / Treatment-related AE: Headache / Treatment-related AE: Insomnia / Treatment-related AE: Limb discomfort / Treatment-related AE: Low density lipoprotein increased / Treatment-related AE: Mouth ulceration / Treatment-related AE: Mucosal inflammation / Treatment-related AE: Neutropenia / Treatment-related AE: Oral pain / Treatment-related AE: Paresthesia oral / Treatment-related AE: Pruritus / Treatment-related AE: Stomatitis / Treatment-related AE: Thrombocytopenia / Treatment-related AE: Tongue ulceration / Treatment-related AE: Urinary tract infection / Treatment-related AEs: Patients with AE(s) / Treatment-related AEs: Total AE(s): N = 53
[6] = system: influenza vaccine strains; experiment: Primary endpoint: HI GMT ratio relative to placebo in at least 2 of 3 influenza vaccine strains; type: in vivo, human; details: ITT population
Procedure: The ability of RAD001 to improve immune function in elderly volunteers was evaluated by measuring the serologic response to the 2012 seasonal influenza vaccine. The hemagglutination inhibition (HI) geometric mean titers (GMT) to each of the 3 influenza vaccine strains at baseline and 4 weeks after influenza vaccination are provided in Table 6. The primary analysis variable was the HI GMT ratio (4 weeks post vaccination/baseline). […] This endpoint was chosen because a 1.2-fold increase in the influenza GMT ratio induced by the MF-59 vaccine adjuvant was associated with a decrease in influenza illness (Iob, A et al. (2005) Epidemiol Infect 133:687-693).
Elderly volunteers >=65 years of age were randomized to one of the 3 RAD001 treatment groups (50 subjects per arm) or placebo (20 subjects per arm). Subjects were treated with study drug for 6 weeks, given a 2 week break, and then received influenza (Aggrippal, Novartis) and pneumoccal (Pneumovax 23, Merck), vaccinations. Response to influenza vaccination was assessed by measuring the geometric mean titers (GMTs) by hemagglutination inhibition assay to the 3 influenza strains (H1N1, H3N2 and B influenza subtypes) in the influenza vaccine 4 weeks after vaccination. […] Antibody titers to 7 of the serotypes were measured in our subjects.

CO[C@H]1C[C@@H]2CC[C@@H](C)[C@@](O)(O2)C(=O)C(=O)N2CCCC[C@H]2C(=O)O[C@H]([C@H](C)C[C@@H]2CC[C@@H](OCCO)[C@H](OC)C2)CC(=O)[C@H](C)/C=C(\C)[C@@H](O)[C@@H](OC)C(=O)[C@H](C)C[C@H](C)/C=C/C=C/C=C/1C [RAD001, (1R,9S,12S,15R,16E,18R,19R,21R,23S,24E,26E,28E,30S,32S,35R)-1,18-dihydroxy-12-{(1R)-2-[(1S,3R,4R)-4-(2-hydroxyethoxy)-3-methoxycyclohexyl]-1-methylethyl}-19,30-dimethoxy-15,17,21,23,29,35-hexamethyl-11,36-dioxa-4-azatricyclo[30.3.1.0^4,9]hexatriaconta-16,24,26,28-tetraene-2,3,10,14,20-pentaone]
energy and exercise ability as compared to placebo [1]: increased energy and exercise ability
decrease in PD-1 positive CD8 T cells compared to placebo cohort ([2]; in vivo): 37.4% and 41.4%
decrease in PD-1 positive CD4 T cells compared to placebo cohort ([2]; week 6, pooled RAD cohort (n=84), p=0.03): 30.2%
decrease in PD-1 positive CD4 T cells compared to placebo cohort ([2]; week 12, pooled RAD cohort, p=0.05): 32.7%
exercise and energy [3]: increases in exercise and energy
average RAD001 trough level (0.5 mg daily dosing cohort): 0.9 ng/mL
average RAD001 trough level (20 mg weekly dosing cohort): 0.7 ng/mL
trough level of the study regimens relative to oncology and transplant regimens, fold lower (dosing regimens used in the immunization study): 3-20 fold
titers to heterologous influenza strains [4]: increase in titers to heterologous influenza strains as compared to placebo
titers to influenza vaccine strains [4]: increase in titers to influenza vaccine strains as compared to placebo
Treatment-related AE: Blood cholesterol increased ([5]; RAD001 0.5 mg daily): 2 (3.8%) n (%)
Treatment-related AE: Conjunctivitis ([5]; RAD001 0.5 mg daily): 0 n (%)
Treatment-related AE: Diarrhea ([5]; RAD001 0.5 mg daily): 1 (1.9%) n (%)
Treatment-related AE: Dry mouth ([5]; RAD001 0.5 mg daily): 0 n (%)
Treatment-related AE: Dyspepsia ([5]; RAD001 0.5 mg daily): 0 n (%)
Treatment-related AE: Erythema ([5]; RAD001 0.5 mg daily): 0 n (%)
Treatment-related AE: Fatigue ([5]; RAD001 0.5 mg daily): 0 n (%)
Treatment-related AE: Headache ([5]; RAD001 0.5 mg daily): 0 n (%)
Treatment-related AE: Insomnia ([5]; RAD001 0.5 mg daily): 1 (1.9%) n (%)
Treatment-related AE: Limb discomfort ([5]; RAD001 0.5 mg daily): 0 n (%)
Treatment-related AE: Low density lipoprotein increased ([5]; RAD001 0.5 mg daily): 2 (3.8%) n (%)
Treatment-related AE: Mouth ulceration ([5]; RAD001 0.5 mg daily): 6 (11.3%) n (%)
Treatment-related AE: Mucosal inflammation ([5]; RAD001 0.5 mg daily): 0 n (%)
Treatment-related AE: Neutropenia ([5]; RAD001 0.5 mg daily): 0 n (%)
Treatment-related AE: Oral pain ([5]; RAD001 0.5 mg daily): 0 n (%)
Treatment-related AE: Paresthesia oral ([5]; RAD001 0.5 mg daily): 2 (3.8%) n (%)
Treatment-related AE: Pruritus ([5]; RAD001 0.5 mg daily): 0 n (%)
Treatment-related AE: Stomatitis ([5]; RAD001 0.5 mg daily): 0 n (%)
Treatment-related AE: Thrombocytopenia ([5]; RAD001 0.5 mg daily): 0 n (%)
Treatment-related AE: Tongue ulceration ([5]; RAD001 0.5 mg daily): 3 (5.7%) n (%)
Treatment-related AE: Urinary tract infection ([5]; RAD001 0.5 mg daily): 0 n (%)
Treatment-related AEs: Patients with AE(s) ([5]; RAD001 0.5 mg daily): 22 (41.5%) n (%)
Treatment-related AEs: Total AE(s) ([5]; RAD001 0.5 mg daily): 35 n (%)
Treatment-related AE: Blood cholesterol increased ([5]; RAD001 5 mg weekly): 2 (3.8%) n (%)
Treatment-related AE: Conjunctivitis ([5]; RAD001 5 mg weekly): 2 (3.8%) n (%)
Treatment-related AE: Diarrhea ([5]; RAD001 5 mg weekly): 4 (7.5%) n (%)
Treatment-related AE: Dry mouth ([5]; RAD001 5 mg weekly): 0 n (%)
Treatment-related AE: Dyspepsia ([5]; RAD001 5 mg weekly): 3 (5.7%) n (%)
Treatment-related AE: Erythema ([5]; RAD001 5 mg weekly): 2 (3.8%) n (%)
Treatment-related AE: Fatigue ([5]; RAD001 5 mg weekly): 2 (3.8%) n (%)
Treatment-related AE: Headache ([5]; RAD001 5 mg weekly): 2 (3.8%) n (%)
Treatment-related AE: Insomnia ([5]; RAD001 5 mg weekly): 2 (3.8%) n (%)
Treatment-related AE: Limb discomfort ([5]; RAD001 5 mg weekly): 2 (3.8%) n (%)
Treatment-related AE: Low density lipoprotein increased ([5]; RAD001 5 mg weekly): 1 (1.9%) n (%)
Treatment-related AE: Mouth ulceration ([5]; RAD001 5 mg weekly): 2 (3.8%) n (%)
Treatment-related AE: Mucosal inflammation ([5]; RAD001 5 mg weekly): 0 n (%)
Treatment-related AE: Neutropenia ([5]; RAD001 5 mg weekly): 0 n (%)
Treatment-related AE: Oral pain ([5]; RAD001 5 mg weekly): 2 (3.8%) n (%)
Treatment-related AE: Paresthesia oral ([5]; RAD001 5 mg weekly): 0 n (%)
Treatment-related AE: Pruritus ([5]; RAD001 5 mg weekly): 2 (3.8%) n (%)
Treatment-related AE: Stomatitis ([5]; RAD001 5 mg weekly): 0 n (%)
Treatment-related AE: Thrombocytopenia ([5]; RAD001 5 mg weekly): 0 n (%)
Treatment-related AE: Tongue ulceration ([5]; RAD001 5 mg weekly): 1 (1.9%) n (%)
Treatment-related AE: Urinary tract infection ([5]; RAD001 5 mg weekly): 0 n (%)
Treatment-related AEs: Patients with AE(s) ([5]; RAD001 5 mg weekly): 20 (37.7%) n (%)
Treatment-related AEs: Total AE(s) ([5]; RAD001 5 mg weekly): 46 n (%)
Treatment-related AE: Blood cholesterol increased ([5]; RAD001 20 mg weekly): 2 (3.8%) n (%)
Treatment-related AE: Conjunctivitis ([5]; RAD001 20 mg weekly): 0 n (%)
Treatment-related AE: Diarrhea ([5]; RAD001 20 mg weekly): 1 (1.9%) n (%)
Treatment-related AE: Dry mouth ([5]; RAD001 20 mg weekly): 2 (3.8%) n (%)
Treatment-related AE: Dyspepsia ([5]; RAD001 20 mg weekly): 2 (3.8%) n (%)
Treatment-related AE: Erythema ([5]; RAD001 20 mg weekly): 0 n (%)
Treatment-related AE: Fatigue ([5]; RAD001 20 mg weekly): 4 (7.5%) n (%)
Treatment-related AE: Headache ([5]; RAD001 20 mg weekly): 9 (17.0%) n (%)
Treatment-related AE: Insomnia ([5]; RAD001 20 mg weekly): 1 (1.9%) n (%)
Treatment-related AE: Limb discomfort ([5]; RAD001 20 mg weekly): 0 n (%)
Treatment-related AE: Low density lipoprotein increased ([5]; RAD001 20 mg weekly): 2 (3.8%) n (%)
Treatment-related AE: Mouth ulceration ([5]; RAD001 20 mg weekly): 9 (17.0%) n (%)
Treatment-related AE: Mucosal inflammation ([5]; RAD001 20 mg weekly): 2 (3.8%) n (%)
Treatment-related AE: Neutropenia ([5]; RAD001 20 mg weekly): 3 (5.7%) n (%)
Treatment-related AE: Oral pain ([5]; RAD001 20 mg weekly): 1 (1.9%) n (%)
Treatment-related AE: Paresthesia oral ([5]; RAD001 20 mg weekly): 0 n (%)
Treatment-related AE: Pruritus ([5]; RAD001 20 mg weekly): 1 (1.9%) n (%)
Treatment-related AE: Stomatitis ([5]; RAD001 20 mg weekly): 2 (3.8%) n (%)
Treatment-related AE: Thrombocytopenia ([5]; RAD001 20 mg weekly): 2 (3.8%) n (%)
Treatment-related AE: Tongue ulceration ([5]; RAD001 20 mg weekly): 0 n (%)
Treatment-related AE: Urinary tract infection ([5]; RAD001 20 mg weekly): 2 (3.8%) n (%)
Treatment-related AEs: Patients with AE(s) ([5]; RAD001 20 mg weekly): 27 (50.9%) n (%)
Treatment-related AEs: Total AE(s) ([5]; RAD001 20 mg weekly): 109 n (%)
tolerability ([5]; elderly volunteers, 6 weeks, particularly 0.5 mg daily and 5 mg weekly): well tolerated
primary endpoint of the study (HI GMT ratio) ([6]; 0.5 mg daily or 5 mg weekly): met the GMT primary endpoint
primary endpoint of the study (HI GMT ratio) ([6]; 20 mg weekly): but not higher dose (20 mg weekly) cohort met the primary endpoint
